Results on 3 compounds are retold here after ChEMBL document CHEMBL5614382, “Discovery of a new 1-(phenylsulfonyl)-1H-indole derivative targeting the EphA2 receptor with antiproliferative activity on U251 glioblastoma cell line” (Eur J Med Chem, 2024).

Assay [1] concerns the target T1, Ephrin type-A receptor 8 (Mus musculus, UniProt O09127).
T1 sequence (O09127 whole entry): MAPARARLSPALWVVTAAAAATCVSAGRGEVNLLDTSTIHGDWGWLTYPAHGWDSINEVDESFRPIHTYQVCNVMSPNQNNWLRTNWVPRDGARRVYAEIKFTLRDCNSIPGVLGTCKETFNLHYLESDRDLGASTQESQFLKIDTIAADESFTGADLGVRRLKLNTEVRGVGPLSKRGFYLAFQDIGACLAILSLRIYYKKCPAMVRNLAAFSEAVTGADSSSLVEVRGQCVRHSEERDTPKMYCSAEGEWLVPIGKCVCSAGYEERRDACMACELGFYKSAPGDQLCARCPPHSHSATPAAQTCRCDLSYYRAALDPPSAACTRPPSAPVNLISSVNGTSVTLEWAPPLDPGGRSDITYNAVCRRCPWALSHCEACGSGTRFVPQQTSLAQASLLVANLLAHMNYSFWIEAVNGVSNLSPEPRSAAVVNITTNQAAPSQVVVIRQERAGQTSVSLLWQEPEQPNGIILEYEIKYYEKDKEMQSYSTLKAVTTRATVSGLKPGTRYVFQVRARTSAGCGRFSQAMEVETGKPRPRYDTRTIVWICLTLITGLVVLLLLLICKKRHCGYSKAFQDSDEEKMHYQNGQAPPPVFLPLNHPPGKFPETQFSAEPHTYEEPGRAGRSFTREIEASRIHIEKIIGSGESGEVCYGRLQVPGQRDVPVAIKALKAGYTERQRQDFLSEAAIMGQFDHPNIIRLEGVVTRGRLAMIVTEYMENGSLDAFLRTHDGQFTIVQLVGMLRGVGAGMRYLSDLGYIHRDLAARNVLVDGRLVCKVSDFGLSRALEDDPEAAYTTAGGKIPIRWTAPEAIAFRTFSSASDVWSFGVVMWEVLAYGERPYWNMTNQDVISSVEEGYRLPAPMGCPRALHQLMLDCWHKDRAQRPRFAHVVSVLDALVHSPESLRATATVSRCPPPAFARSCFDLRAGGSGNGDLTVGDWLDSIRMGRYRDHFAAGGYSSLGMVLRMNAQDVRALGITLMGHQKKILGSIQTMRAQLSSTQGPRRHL
As to the kind of experiment: Displacement of biotinylated Fc-tagged ephrin-A1 from recombinant N/C-terminal 6-his tagged mouse EphA8 (Gly27 to Arg540 residues) preincubated for 1 hr followed by ephrin-A1-Fc addition and measured after 4 to 5 hrs by ELISA assay.

The target in assay [2] is T2, Ephrin type-A receptor 6 (Mus musculus, UniProt Q62413).
T2 sequence (Q62413 whole entry): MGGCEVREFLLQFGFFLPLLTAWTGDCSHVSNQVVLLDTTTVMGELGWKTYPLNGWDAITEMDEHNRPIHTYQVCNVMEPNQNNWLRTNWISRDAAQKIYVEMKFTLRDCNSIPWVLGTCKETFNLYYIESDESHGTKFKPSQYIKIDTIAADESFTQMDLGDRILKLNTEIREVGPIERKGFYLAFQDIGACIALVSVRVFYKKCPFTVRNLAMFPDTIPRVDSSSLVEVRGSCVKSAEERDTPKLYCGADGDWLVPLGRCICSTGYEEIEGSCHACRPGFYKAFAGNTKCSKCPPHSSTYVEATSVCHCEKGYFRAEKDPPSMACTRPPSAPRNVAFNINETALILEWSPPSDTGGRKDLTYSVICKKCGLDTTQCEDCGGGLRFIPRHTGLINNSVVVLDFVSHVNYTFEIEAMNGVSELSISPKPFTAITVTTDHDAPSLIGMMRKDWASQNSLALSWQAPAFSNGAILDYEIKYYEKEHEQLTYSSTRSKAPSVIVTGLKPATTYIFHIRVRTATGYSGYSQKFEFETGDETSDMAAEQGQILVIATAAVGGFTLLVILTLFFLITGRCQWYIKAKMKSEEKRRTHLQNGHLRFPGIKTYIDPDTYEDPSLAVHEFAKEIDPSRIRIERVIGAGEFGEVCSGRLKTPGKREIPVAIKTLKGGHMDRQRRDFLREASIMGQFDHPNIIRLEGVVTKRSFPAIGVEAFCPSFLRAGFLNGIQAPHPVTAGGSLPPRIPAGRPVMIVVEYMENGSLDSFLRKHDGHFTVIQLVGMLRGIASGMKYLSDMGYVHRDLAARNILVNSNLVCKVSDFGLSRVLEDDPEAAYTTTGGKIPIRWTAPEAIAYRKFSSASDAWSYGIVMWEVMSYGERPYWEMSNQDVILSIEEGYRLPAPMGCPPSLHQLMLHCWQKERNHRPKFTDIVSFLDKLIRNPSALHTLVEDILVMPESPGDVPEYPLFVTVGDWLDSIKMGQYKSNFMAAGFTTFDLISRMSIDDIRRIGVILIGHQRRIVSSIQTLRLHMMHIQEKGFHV
As to the kind of experiment: Displacement of biotinylated Fc-tagged ephrin-A1 from recombinant N/C-terminal 6-his tagged mouse EphA6 (Ser28 to Gln546 residues) preincubated for 1 hr followed by ephrin-A1-Fc addition and measured after 4 to 5 hrs by ELISA assay.

Assay [3] has as its target Ephrin type-A receptor 5 (Rattus norvegicus, UniProt P54757). In words: Displacement of biotinylated Fc-tagged ephrin-A1 from recombinant N/C-terminal 6-his tagged rat EphA5 (Ser 58 to Gln573 residues) preincubated for 1 hr followed by ephrin-A1-Fc addition and measured after 4 to 5 hrs by ELISA assay.

Chain of Ephrin type-A receptor 5 (P54757 whole entry): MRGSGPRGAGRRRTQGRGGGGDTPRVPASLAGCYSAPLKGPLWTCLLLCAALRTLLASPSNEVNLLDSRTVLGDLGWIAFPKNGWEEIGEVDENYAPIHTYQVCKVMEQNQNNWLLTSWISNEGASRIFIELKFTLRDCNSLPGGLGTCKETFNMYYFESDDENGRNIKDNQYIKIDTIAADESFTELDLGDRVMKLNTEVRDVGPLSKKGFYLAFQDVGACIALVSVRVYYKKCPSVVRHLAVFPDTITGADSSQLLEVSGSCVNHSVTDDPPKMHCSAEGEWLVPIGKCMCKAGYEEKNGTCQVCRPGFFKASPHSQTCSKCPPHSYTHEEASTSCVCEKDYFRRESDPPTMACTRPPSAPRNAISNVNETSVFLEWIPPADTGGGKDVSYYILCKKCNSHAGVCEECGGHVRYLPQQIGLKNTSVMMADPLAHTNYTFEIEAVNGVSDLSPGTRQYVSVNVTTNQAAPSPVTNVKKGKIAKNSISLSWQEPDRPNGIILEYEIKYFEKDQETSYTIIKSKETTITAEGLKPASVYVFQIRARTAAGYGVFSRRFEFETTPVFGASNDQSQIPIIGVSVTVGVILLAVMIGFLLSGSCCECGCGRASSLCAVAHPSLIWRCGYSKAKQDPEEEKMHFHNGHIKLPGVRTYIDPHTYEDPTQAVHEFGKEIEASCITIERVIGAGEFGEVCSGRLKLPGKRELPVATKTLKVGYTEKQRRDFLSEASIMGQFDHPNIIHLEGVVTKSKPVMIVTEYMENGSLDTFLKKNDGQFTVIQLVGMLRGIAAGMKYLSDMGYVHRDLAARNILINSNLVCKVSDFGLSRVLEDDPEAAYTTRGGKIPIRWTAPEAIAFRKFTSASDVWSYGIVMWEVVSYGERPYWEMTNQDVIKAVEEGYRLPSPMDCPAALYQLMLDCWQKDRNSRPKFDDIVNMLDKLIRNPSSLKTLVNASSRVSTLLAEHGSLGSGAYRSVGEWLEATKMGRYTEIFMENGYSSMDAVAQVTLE

`C[C@H](CCC(=O)N[C@H](CC(=O)O)Cc1cn(S(=O)(=O)c2ccc(C(F)(F)F)cc2)c2ccccc12)[C@H]1CC[C@H]2[C@@H]3CC=C4C[C@@H](O)CC[C@]4(C)[C@H]3CC[C@]12C`: the IC50 was found to be 13 µM in assay [1], 10 µM in assay [2] and 9.3 µM in assay [3].
The like results for `C[C@H](CCC(=O)N[C@H](CC(=O)O)Cc1cn(S(=O)(=O)c2ccccc2)c2ccccc12)[C@H]1CC[C@H]2[C@@H]3CC=C4C[C@@H](O)CC[C@]4(C)[C@H]3CC[C@]12C` were, in that order, 5.5 µM, 11 µM and 10 µM.
Take `C[C@H](CCC(=O)N[C@H](CC(=O)O)Cc1c[nH]c2ccccc12)[C@H]1CC[C@H]2[C@@H]3CC=C4C[C@@H](O)CC[C@]4(C)[C@H]3CC[C@]12C`: the IC50 worked out at 1.8 µM in assay [1], 2.9 µM in assay [2] and 3 µM in assay [3].
